From US9388208B2, “Pyrrolo[1,2-f][1,2,4]triazines useful for treating respiratory syncitial virus infections” (Gilead Sciences, Inc., priority 2013, dated 2016)
Like-named read-outs stand apart in the source and are kept apart here.

Key:
[1] = Cytotoxicity assay in HEp-2 cells; format: cell-based; conditions: human, uninfected HEp-2 cells, CellTiter Glo
Protocol: Cytotoxicity of tested compounds is determined in uninfected HEp-2 cells in parallel with the antiviral activity using the cell viability reagent in a similar fashion as described before for other cell types (Cihlar et al., Antimicrob Agents Chemother. 2008, 52(2):655-65.). The same protocol as for the determination of antiviral activity is used for the measurement of compound cytotoxicity except that the cells are not infected with RSV. Instead, an uninfected cell mixture at the same density is added at 20 ul/well to plates containing prediluted compounds, also at 100 nl/sample. Assay plates are then incubated for 4 days followed by a cell viability test using the same CellTiter Glo reagent addition and measurement of luminescent readouts. Untreated cell and cells treated at 2 uM puromycin (Sigma, St. Louis, Mo.) serve as 100% and 0% cell viability control, respectively. The percent of cell viability is calculated for each tested compound concentration relative to the 0% and 100% controls and the CC50 value is determined by non-linear regression as a compound concentration reducing the cell viability by 50%.

[2] = Cytotoxicity assay in MT-4 cells; format: cell-based; conditions: human, Cell-Titer Glo
Protocol: The MT-4 cell line was obtained from the NIH AIDS Research and Reference Reagent Program (Germantown, Md.) and cultured in RPMI-1640 medium (Irvine Scientific, Santa Ana, Calif., Cat #9160) supplemented with 10% FBS, 100 units/mL penicillin, 100 units/mL streptomycin, and 2 mM L-Glutamine. The MT-4 cells were passaged twice per week to maintain cell densities below 0.6×10^6 cells/mL. Complete RPMI-1640 media containing 100× concentrations of 3-fold serially diluted compound, ranging from 26 nM to 530 μM, were stamped in quadruplicate into black 384-well plates. After compound addition, 2×10^3 MT-4 cells were added to each well using a MicroFlo liquid dispenser (BioTek, Winooski, Vt.) and the cells were cultured for 5 days at 37° C. in a 5% CO2 incubator. Following the incubation the cells were allowed to equilibrate to 25° C. and cell viability was determined by adding 25 μL of Cell-Titer Glo viability reagent. The mixture was incubated for 10 minutes at 25° C., and the luminescence signal was quantified on a Victor Luminescence plate reader. The CC50 value is defined as the concentration of compound that reduces cell viability by 50% as determined by the Cell-Titer Glo signal. The data were analyzed using Pipeline Pilot Plate Data Analytics Collection software (Version 7.0, Accelrys, San Diego, Calif.). CC50 values were calculated from a non-linear regression analysis using a 4-parameter sigmoidal dose-response equation: Y=Bottom+(Top−Bottom)/(1+10^[(Log CC50−X)*HillSlope]) where the Top and Bottom were fixed at 100% and 0% cell viability, respectively. CC50 values were calculated as the average±standard deviation of 3 independent experiments.

RSV strain A2 = experiment: Anti-RSV activity, infectious cytopathic cell protection assay in HEp-2 cells; format: cell-based, Respiratory Syncytial Virus (RSV); conditions: human respiratory syncytial virus
Protocol: Antiviral activity against RSV is determined using an infectious cytopathic cell protection assay in HEp-2 cells. In this assay, compounds inhibiting viral infection and/or replication produce a cytoprotective effect against the virus-induced cell killing that can be quantified using a cell viability reagent. The techniques used here are novel adaptations of methods described in published literature (Chapman et al., Antimicrob Agents Chemother. 2007, 51(9):3346-53.)
HEp-2 cells are obtained from ATCC (Manassas, VI) and maintained in MEM media supplemented with 10% fetal bovine serum and penicillin/streptomycin. Cells are passaged twice a week and kept at subconfluent stage. Commercial stock of RSV strain A2 (Advanced Biotechnologies, Columbia, Md.) is titered before compound testing to determine the appropriate dilution of the virus stock that generates desirable cytopathic effect in HEp-2 cells.
For antiviral tests, HEp-2 cells are grown in large cell culture flasks to near confluency but not fully so. The compounds to be tested are prediluted in DMSO in 384-well compound dilution plates, either in an 8 or 40 sample per plate standardized dose response format. 3-fold serial dilution increments of each test compound are prepared in the plates and test samples are transferred via acoustic transfer apparatus (Echo, Labcyte) at 100 nl per well into cell culture assay 384-well plates. Each compound dilution is transferred in single or quadruplicate samples into dry assay plates, which are stored until assay is ready to go. The positive and negative controls are laid out in opposite on ends of the plate in vertical blocks (1 column).
Subsequently, an infectious mixture is prepared using an appropriate dilution of virus stock previously determined by titration with cells at a density of 50,000/ml and 20 uL/well is added to test plates w/compounds via automation (uFlow, Biotek). Each plate includes negative and positive controls (16 replicates each) to create 0% and 100% virus inhibition standards, respectively. Following the infection with RSV, testing plates are incubated for 4 days in a 37° C. cell culture incubator. After the incubation, a cell viability reagent, Cell TiterGlo (Promega, Madison, Wis.) is added to the assay plates, which are incubated briefly, and a luminescent readout is measured (Envision, Perkin Elmer) in all the assay plates. The RSV-induced cytopathic effect, percentage inhibition, is determined from the levels of remaining cell viability. These numbers are calculated for each tested concentration relative to the 0% and 100% inhibition controls, and the EC50 value for each compound is determined by non-linear regression as a concentration inhibiting the RSV-induced cytopathic effect by 50%. Various potent anti-RSV tool compounds are used as positive controls for antiviral activity.

[3] = 96 h, HEp-2 cells infected with RSV A2, 4 days, Cell TiterGlo, read-out: EC50
[4] = HEp-2 anti-RSV activity, read-out: EC50 (HEp-2 anti-RSV activity)

EC50 (RSV strain A2; [3]) | EC50 (RSV strain A2; [4]) | SMILES | CC50 at 4 days [1] | CC50 at 5 days [2] | EC50 (RSV strain A2; HEp-2, 96 h)
10.5 µM | < 100 µM | C=C[C@]1(CO)O[C@@H](c2ccc3c(N)ncnn23)[C@H](F)[C@@H]1O [Example 13, (2R,3R,4R,5S)-5-(4-aminopyrrolo[1,2-f][1,2,4]triazin-7-yl)-4-fluoro-2-(hydroxymethyl)-2-vinyltetrahydrofuran-3-ol] | > 100 µM | > 106 µM | 
50 µM | < 100 µM | [N-]=[N+]=N[C@]1(CO)O[C@@H](c2cc(F)c3c(N)ncnn23)[C@H](F)[C@@H]1O [Example 21, (2R,3R,4R,5S)-5-(4-amino-5-fluoropyrrolo[2,1-f][1,2,4]triazin-7-yl)-2-azido-4-fluoro-2-(hydroxymethyl)tetrahydrofuran-3-ol] | 36 µM | 15 µM | 
> 100 µM |  | Nc1ncnn2c([C@@H]3O[C@H](CO)[C@@H](O)[C@H]3F)ccc12 [(2R,3R,4R,5S)-5-(4-aminopyrrolo[1,2-f][1,2,4]triazin-7-yl)-4-fluoro-2-(hydroxymethyl)tetrahydrofuran-3-ol, reference compound] |  | 30 µM | 
2.1 µM |  | [N-]=[N+]=N[C@]1(CO)O[C@@H](c2ccc3c(N)ncnn23)[C@H](O)[C@@H]1O [Example 5, (2R,3S,4R,5S)-5-(4-aminopyrrolo[1,2-f][1,2,4]triazin-7-yl)-2-azido-2-(hydroxymethyl)tetrahydrofuran-3,4-diol] | > 50 µM | > 53 µM | 
9.6 µM | < 100 µM | C#C[C@]1(CO)O[C@@H](c2ccc3c(N)ncnn23)[C@H](F)[C@@H]1O [Example 2, (2R,3R,4R,5S)-5-(4-aminopyrrolo[1,2-f][1,2,4]triazin-7-yl)-2-ethynyl-4-fluoro-2-(hydroxymethyl)tetrahydrofuran-3-ol] | > 100 µM | > 106 µM | 
23.5 µM | < 100 µM | N#C[C@]1(CO)O[C@@H](c2cc(F)c3c(N)ncnn23)[C@H](F)[C@@H]1O [Example 23, (2R,3R,4R,5S)-5-(4-amino-5-fluoropyrrolo[2,1-f][1,2,4]triazin-7-yl)-4-fluoro-3-hydroxy-2-(hydroxymethyl)tetrahydrofuran-2-carbonitrile] | 72 µM | 21 µM | 
2 µM | < 100 µM | N#C[C@]1(CO)O[C@@H](c2ccc3c(N)ncnn23)[C@H](F)[C@@H]1O [Example 3, (2R,3R,4R,5S)-5-(4-aminopyrrolo[1,24][1,2,4]triazin-7-yl)-4-fluoro-3-hydroxy-2-(hydroxymethyl)tetrahydrofuran-2-carbonitrile] | > 100 µM | > 106 µM | 
30 µM |  | C[C@]1(CO)O[C@@H](c2ccc3c(N)ncnn23)[C@H](O)[C@@H]1O [Example 4, (2R,3S,4R,5S)-5-(4-aminopyrrolo[1,2-f][1,2,4]triazin-7-yl)-2-(hydroxymethyl)-2-methyltetrahydrofuran-3,4-diol] | > 50 µM | > 53 µM | 
1 µM | < 100 µM | C[C@]1(CO)O[C@@H](c2ccc3c(N)ncnn23)[C@H](F)[C@@H]1O [Example 24, (2R,3R,4R,5S)-5-(4-aminopyrrolo[2,1-f][1,2,4]triazin-7-yl)-4-fluoro-2-(hydroxymethyl)-2-methyltetrahydrofuran-3-ol] | > 100 µM | 11 µM | 

The remaining lines, values behind:

SMILES | EC50 (RSV strain A2; [3]) | EC50 (RSV strain A2; [4]) | CC50 at 4 days [1] | CC50 at 5 days [2] | EC50 (RSV strain A2; HEp-2, 96 h)
C=C[C@]1(COP(=O)(OCCSC(=O)C(C)(C)C)OCCSC(=O)C(C)(C)C)O[C@@H](c2ccc3c(N)ncnn23)[C@H](F)[C@@H]1O [Example 15, S,S′-2,2′-((((2R,3R,4R,5S)-5-(4-aminopyrrolo[1,2-f][1,2,4]triazin-7-yl)-4-fluoro-3-hydroxy-2-vinyltetrahydrofuran-2-yl)methoxy)phosphoryl)bis(oxy)bis(ethane-2,1-diyl)bis(2,2-dimethylpropanethioate)] |  |  | 35 µM | 7.9 µM | 1.6 µM
Nc1ncnn2c([C@@H]3O[C@H](CO)[C@@H](O)[C@H]3O)ccc12 [(2S,3R,4S,5R)-2-(4-aminopyrrolo[1,2-t][1,2,4]triazin-7-yl)-5-(hydroxymethyl)tetrahydrofuran-3,4-diol, reference compound] |  |  |  | 0.007 µM | 
CC(C)(C)C(=O)SCCOP(=O)(OCCSC(=O)C(C)(C)C)OC[C@@]1(C#N)O[C@@H](c2ccc3c(N)ncnn23)[C@H](F)[C@@H]1O [Example 11, S,S′-2,2′-((((2R,3R,4R,5S)-5-(4-aminopyrrolo[1,2-f][1,2,4]triazin-7-yl)-2-cyano-4-fluoro-3-hydroxytetrahydrofuran-2-yl)methoxy)phosphoryl)bis(oxy)bis(ethane-2,1-diyl)bis(2,2-dimethylpropanethioate)] |  |  | 42 µM | 19.7 µM | 1.2 µM
CCC(CC)COC(=O)[C@H](C)NP(=O)(OC[C@@]1(N=[N+]=[N-])O[C@@H](c2ccc3c(N)ncnn23)[C@H](O)[C@@H]1O)Oc1ccccc1 (stereo partly drawn) [Example 16, (2S)-2-ethylbutyl 2-(((((2R,3S,4R,5S)-5-(4-aminopyrrolo[2,1-f][1,2,4]triazin-7-yl)-2-azido-3,4-dihydroxytetrahydrofuran-2-yl)methoxy)(phenoxy)phosphoryl)amino)propanoate] |  |  | 18 µM | 25 µM | 0.3 µM
CCC(CC)COC(=O)[C@H](C)NP(=O)(OC[C@@]1(C#N)O[C@@H](c2ccc3c(N)ncnn23)C(F)C1O)Oc1ccccc1 (stereo partly drawn) [Example 12, (2S)-2-ethylbutyl 2-((((2R,3R,4R,5S)-5-(4-aminopyrrolo[1,2-f][1,2,4]triazin-7-yl)-2-cyano-4-fluoro-3-hydroxytetrahydrofuran-2-yl)methoxy)(phenoxy)phosphorylamino)propanoate] |  |  | > 50 µM | 27 µM | 3 µM
CCOC(=O)[C@H](C)NP(=O)(OC[C@@]1(C#N)O[C@@H](c2ccc3c(N)ncnn23)[C@H](O)[C@@H]1O)Oc1ccccc1 (stereo partly drawn) [Example 35, (2S)-ethyl 2-(((((2R,3S,4R,5S)-5-(4-aminopyrrolo[2,1-f][1,2,4]triazin-7-yl)-2-cyano-3,4-dihydroxytetrahydrofuran-2-yl)methoxy)(phenoxy)phosphoryl)amino) propanoate] |  |  | > 50 µM | 47 µM | 0.34 µM
